The text below walks through data of PubChem BioAssay (NCI).

Among the test systems are M19-MEL melanoma; DLD-1 colon; RXF-631 renal; BT-549 breast; MDA-N; DMS 273 small cell lung; HOP-18 NSCLC; LXFL 529 NSCLC; XF 498 CNS; P388/ADR leukemia; P388 leukemia.
What all share (assay): NCI tumour cell line growth inhibition, 48 h

Structures are written as SMILES. Where “and” joins values, the source holds several entries; their conditions need not be identical. Equal values may be shown once.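 Cultured in 96-well plates, cells were exposed to test compound for 48 hours across five concentrations. The concentration for 50% growth inhibition is given as GI50. TGI: concentration producing complete growth inhibition.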 Where a SMILES comes first, the peptide text is derived from it. A value given as a limit tells only on which side of the number the result lay.

As for `O=C(O)C1NCCc2c1[nH]c1ccccc21` (stereo unspecified), the TGI in the assay with M19-MEL melanoma is above 100 µM; in the assay with DLD-1 colon it was above 100 µM; with RXF-631 renal, above 100 µM; in the assay with BT-549 breast, above 10 µM; in the assay on MDA-N it was above 10 µM; in the assay with DMS 273 small cell lung, above 100 µM. Besides, the TGI with HOP-18 NSCLC and in the assay with LXFL 529 NSCLC was above 100 µM throughout.
Regarding `COC(=O)C(C(=O)C(=O)NC1=C(Cl)C(=O)c2ccccc2C1=O)c1csc(-n2nc(-c3ccccc3)cc2-c2ccccc2)n1` (stereo unspecified), the TGI in the assay on M19-MEL melanoma, in the assay on DLD-1 colon, with RXF-631 renal, in the assay with XF 498 CNS, with DMS 273 small cell lung and in the assay on HOP-18 NSCLC was above 100 µM throughout. For the same molecule, the TGI with LXFL 529 NSCLC is above 100 µM.
For the molecule `O=c1c2ccccc2nc(-c2ccc(Br)cc2)n1NC1OC(CO)C(O)C(O)C1O` (stereo unspecified), the TGI with M19-MEL melanoma, with RXF-631 renal, in the assay with DMS 273 small cell lung, with HOP-18 NSCLC and in the assay on LXFL 529 NSCLC was above 100 µM throughout.
`C/C=C/C=N/N(C(=O)c1cc([N+](=O)[O-])cc([N+](=O)[O-])c1)C1=NC(c2ccccc2)C(c2ccccc2)=NN1` (stereo unspecified): the TGI in the assay with M19-MEL melanoma was 46.2 µM; with DLD-1 colon it was above 100 µM; with RXF-631 renal, above 100 µM; with XF 498 CNS, above 100 µM; with DMS 273 small cell lung, above 100 µM; in the assay with HOP-18 NSCLC, above 100 µM.
Regarding `CC(=O)OCc1cc(OC(C)=O)cnc1COC(C)=O`, the TGI in the assay with M19-MEL melanoma, with DLD-1 colon, in the assay with RXF-631 renal, in the assay on XF 498 CNS, in the assay on DMS 273 small cell lung and in the assay on HOP-18 NSCLC was above 100 µM each time. In addition, the TGI with LXFL 529 NSCLC is above 100 µM.
With `CC(C)NCC(O)COC(=O)c1cccs1` (stereo unspecified), the TGI with M19-MEL melanoma, in the assay with DLD-1 colon, in the assay on RXF-631 renal, in the assay with XF 498 CNS, with DMS 273 small cell lung and with LXFL 529 NSCLC was above 100 µM throughout.
Turning to `O=C(O)c1ccc(O)c(N=Nc2cc(S(=O)(=O)O)c3ccccc3c2O)c1`, the TGI with M19-MEL melanoma, in the assay on DLD-1 colon, in the assay with RXF-631 renal and with DMS 273 small cell lung was above 100 µM throughout.
`CC(=O)NC(CCCCNC(=O)N(CCCl)N=O)C(=O)NCc1ccccc1` (stereo unspecified): the TGI in the assay on M19-MEL melanoma, with DLD-1 colon, in the assay with RXF-631 renal, with XF 498 CNS, in the assay on DMS 273 small cell lung and in the assay on HOP-18 NSCLC was above 100 µM throughout. Also, the TGI in the assay on LXFL 529 NSCLC was above 100 µM.
Regarding `Cc1ccc([N+](=O)[O-])cc1NC(=O)C(=O)Cc1occc(=O)c1O`, the TGI in the assay on M19-MEL melanoma, with DLD-1 colon, in the assay with XF 498 CNS and with HOP-18 NSCLC was above 100 µM each time.
Turning to `C#CCOCn1cnc2c(=S)nc[nH]c21`, the TGI in the assay with M19-MEL melanoma, in the assay on DLD-1 colon, in the assay with RXF-631 renal, with XF 498 CNS, in the assay with DMS 273 small cell lung and with LXFL 529 NSCLC was above 100 µM each time.
Regarding `COC(=O)C(C(=O)C(=O)Nc1ccccc1C(C)=O)c1nc2ccc(Cl)cc2[nH]c1=O` (stereo unspecified), the TGI with M19-MEL melanoma, with DLD-1 colon, in the assay on RXF-631 renal, with HOP-18 NSCLC and with LXFL 529 NSCLC was above 100 µM in each case.
`CCC1=C(C)/C(=C/c2[nH]c(CBr)c(CC)c2C)N=C1CBr`: the TGI is 33.7 µM with M19-MEL melanoma; 29 µM with DLD-1 colon; above 100 µM in the assay on RXF-631 renal; above 100 µM in the assay with DMS 273 small cell lung; 24.7 µM in the assay on HOP-18 NSCLC; 17.9 µM with LXFL 529 NSCLC.
Regarding `CNNCc1ccc(C(=O)NC(C)C)cc1`, the TGI in the assay on M19-MEL melanoma, in the assay on DLD-1 colon, with P388/ADR leukemia, with BT-549 breast, in the assay with XF 498 CNS and with MDA-N was above 500 µM throughout. Besides, the TGI was above 500 µM in the assay on P388 leukemia; above 500 µM with DMS 273 small cell lung; 139 µM and > 500 µM in the assay with HOP-18 NSCLC; above 500 µM with LXFL 529 NSCLC. Besides, the GI50 in the assay with HOP-18 NSCLC was above 500 µM.
Turning to `CC(=O)O[C@H]1C(=O)O[C@@H]2C[C@H]3C(C)=CC(=O)[C@@H](O)[C@]3(C)[C@H]3[C@@]4(O)OC[C@]32[C@@H]1[C@@H](C)[C@H]4O`, the TGI was found to be 0.072 µM with M19-MEL melanoma; 0.403 µM with DLD-1 colon; 7.51 µM in the assay with P388/ADR leukemia; 0.513 µM in the assay on BT-549 breast; 0.243 µM in the assay with XF 498 CNS; 0.127 µM with MDA-N. For the same molecule, the TGI in the assay with P388 leukemia is 0.555 µM; in the assay on DMS 273 small cell lung it was 0.0682 µM; with HOP-18 NSCLC, 1.53 µM.
As to `CC1(C)OC(C(N)=O)=C(C(N)=O)O1`, the TGI with M19-MEL melanoma, with DLD-1 colon, in the assay with XF 498 CNS, with DMS 273 small cell lung, with HOP-18 NSCLC and in the assay on LXFL 529 NSCLC was above 100 µM in each case.
Regarding `CC(C)CC(NC(=O)C(CC(C)C)NC(=O)C(Cc1cnc[nH]1)NC(=O)C(C)NC(=O)C(NC(=O)C(C)NC(=O)C(Cc1c[nH]c2ccccc12)NC(=O)C(CCC(=O)O)NC(=O)C(N)Cc1ccccc1)C(C)C)C(N)=O` (stereo unspecified) (H-FEWAVAHLL-NH2; configuration not given here), the TGI in the assay with M19-MEL melanoma was above 100 µM; in the assay on DLD-1 colon, above 100 µM; with RXF-631 renal it was above 100 µM; in the assay with XF 498 CNS, above 100 µM; in the assay with MDA-N it was above 12.5 µM; with DMS 273 small cell lung, above 100 µM. Moreover, the TGI in the assay on HOP-18 NSCLC and in the assay on LXFL 529 NSCLC was above 100 µM throughout.
For `Cc1oc2c(C)c(O)c3c(c2c1C1(C)OCCO1)C(=O)C=C(Cl)C3=O`, the TGI in the assay on M19-MEL melanoma, in the assay on RXF-631 renal, in the assay with XF 498 CNS, in the assay with DMS 273 small cell lung and in the assay with LXFL 529 NSCLC was above 100 µM in each case.
In the case of `COc1cc2ccc3c4c(OC)cc(OC)c(OC)c4c(=O)n(C)c3c2cc1OC`, the GI50 is 3.7 µM in the assay with M19-MEL melanoma; 1.8 µM with DLD-1 colon; 0.495 µM with RXF-631 renal; 5.27 µM in the assay with XF 498 CNS; 22.2 µM in the assay with DMS 273 small cell lung; 0.766 µM in the assay with LXFL 529 NSCLC. For the same molecule, the TGI with M19-MEL melanoma is 16.7 µM and > 40.9 µM; in the assay on DLD-1 colon it was 4.14 µM and > 33.5 µM; in the assay on XF 498 CNS, 7.16 µM and 61.2 µM; with HOP-18 NSCLC, above 100 µM; with LXFL 529 NSCLC, 2.86 µM and > 26.8 µM.
Turning to `Nc1ncnc(NC2C=C(CO)C(O)C2O)c1[N+](=O)[O-]` (stereo unspecified), the TGI with M19-MEL melanoma, in the assay with DLD-1 colon, in the assay on RXF-631 renal, with DMS 273 small cell lung, in the assay with HOP-18 NSCLC and with LXFL 529 NSCLC was above 100 µM throughout.
In the case of `CN(C)C(=O)/N=c1\ss/c(=N\C(=S)N(C)C)n1-c1ccccc1`, the TGI with M19-MEL melanoma is above 100 µM; in the assay with DLD-1 colon it was above 100 µM; with RXF-631 renal, above 100 µM; with XF 498 CNS it was above 85.4 µM; in the assay on DMS 273 small cell lung, above 100 µM; with HOP-18 NSCLC, above 100 µM. This molecule returned a TGI in the assay with LXFL 529 NSCLC above 88.4 µM. The GI50 in the assay on DMS 273 small cell lung was 30 µM; with HOP-18 NSCLC it was above 100 µM.
Turning to `Cc1ccccc1NC(=O)C(=O)C(c1cnc2ccc([N+](=O)[O-])cc2n1)[N+](=O)[O-]` (stereo unspecified), the TGI with M19-MEL melanoma, in the assay with DLD-1 colon, in the assay with RXF-631 renal, in the assay on DMS 273 small cell lung and with HOP-18 NSCLC was above 100 µM throughout.
Regarding `N=C1N(c2ccccc2)C(=O)C23CCCC2C13N1CCOCC1` (stereo unspecified), the TGI in the assay on M19-MEL melanoma, with DLD-1 colon, in the assay with RXF-631 renal, in the assay with DMS 273 small cell lung, in the assay with HOP-18 NSCLC and with LXFL 529 NSCLC was above 100 µM throughout.
Regarding `COC(=O)C(=O)C(C(=O)C(=O)Nc1ccc(Cl)cc1C)c1nc2ccc(C(=O)c3ccccc3)cc2[nH]c1=O` (stereo unspecified), the TGI in the assay on M19-MEL melanoma, in the assay on DLD-1 colon, with RXF-631 renal, with DMS 273 small cell lung, with HOP-18 NSCLC and with LXFL 529 NSCLC was above 100 µM in each case.
Take `COc1cc(/C=C2\[C@H]3c4c(c(OC)c(C)c(OC)c4OC)C[C@@H](C(=O)N2Cc2ccccc2)N3C(=O)OC(C)C)c(OC)c(C)c1OC`: the TGI in the assay on DLD-1 colon, with RXF-631 renal, in the assay with DMS 273 small cell lung, in the assay on HOP-18 NSCLC and with LXFL 529 NSCLC was above 100 µM throughout.
As to `C=C[C@]1(C)CCC2=C(CCC3C2(C)CCC[C@]3(C)CO)C1` (stereo partly specified), the TGI in the assay on M19-MEL melanoma, with DLD-1 colon, in the assay on RXF-631 renal, in the assay on XF 498 CNS, in the assay with DMS 273 small cell lung and in the assay on HOP-18 NSCLC was above 100 µM throughout. In the assay on LXFL 529 NSCLC, this molecule displayed a TGI above 100 µM.
Take `COc1cc2nc(Sc3c([N+](=O)[O-])ncn3C)[nH]c2cc1OC`: the TGI is above 100 µM in the assay on M19-MEL melanoma; 46 µM with DLD-1 colon; 49.2 µM in the assay on XF 498 CNS; above 100 µM with HOP-18 NSCLC; 32 µM with LXFL 529 NSCLC.
Take `COC(=O)C1(C(=O)OC)CC2c3c(c4ccccc4n3C)CC(C1=O)N2Cc1ccccc1` (stereo unspecified): the TGI in the assay with M19-MEL melanoma, in the assay on DLD-1 colon, with RXF-631 renal, in the assay on XF 498 CNS, in the assay on DMS 273 small cell lung and with LXFL 529 NSCLC was above 100 µM throughout.
